For four compounds, IC50 results are on record in ChEMBL document CHEMBL5352506, “The Zinc-Binding Group Effect: Lessons from Non-Hydroxamic Acid Vorinostat Analogs” (J Med Chem, 2023).

Each structure is given as a SMILES string. pIC50: −log10 of the molar value.

In one assay the target is T1, Histone deacetylase 11 (Homo sapiens, UniProt Q96DB2).
T1 sequence (Q96DB2 whole entry): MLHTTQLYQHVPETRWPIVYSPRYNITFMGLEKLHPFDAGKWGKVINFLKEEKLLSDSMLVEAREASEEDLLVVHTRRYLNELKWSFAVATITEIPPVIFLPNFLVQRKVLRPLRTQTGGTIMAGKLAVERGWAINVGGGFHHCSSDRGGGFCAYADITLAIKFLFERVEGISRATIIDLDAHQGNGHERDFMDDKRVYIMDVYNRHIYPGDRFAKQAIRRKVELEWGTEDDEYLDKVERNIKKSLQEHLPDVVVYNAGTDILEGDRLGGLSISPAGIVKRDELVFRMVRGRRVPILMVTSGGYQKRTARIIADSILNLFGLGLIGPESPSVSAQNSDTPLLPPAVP
Kind of assay: Inhibition of human recombinant HDAC11 using ArgHisLysLys(Ac) as substrate by fluorescence based analysis.

The next assay addresses Histone deacetylase 1 (Homo sapiens, UniProt Q13547). Description: Inhibition of human recombinant HDAC1 using ArgHisLysLys(Ac) as substrate by fluorescence based analysis.
The target in assay [1] is T2, Protein deacetylase HDAC6 (Homo sapiens, UniProt Q9UBN7).
T2 sequence (Q9UBN7 whole entry): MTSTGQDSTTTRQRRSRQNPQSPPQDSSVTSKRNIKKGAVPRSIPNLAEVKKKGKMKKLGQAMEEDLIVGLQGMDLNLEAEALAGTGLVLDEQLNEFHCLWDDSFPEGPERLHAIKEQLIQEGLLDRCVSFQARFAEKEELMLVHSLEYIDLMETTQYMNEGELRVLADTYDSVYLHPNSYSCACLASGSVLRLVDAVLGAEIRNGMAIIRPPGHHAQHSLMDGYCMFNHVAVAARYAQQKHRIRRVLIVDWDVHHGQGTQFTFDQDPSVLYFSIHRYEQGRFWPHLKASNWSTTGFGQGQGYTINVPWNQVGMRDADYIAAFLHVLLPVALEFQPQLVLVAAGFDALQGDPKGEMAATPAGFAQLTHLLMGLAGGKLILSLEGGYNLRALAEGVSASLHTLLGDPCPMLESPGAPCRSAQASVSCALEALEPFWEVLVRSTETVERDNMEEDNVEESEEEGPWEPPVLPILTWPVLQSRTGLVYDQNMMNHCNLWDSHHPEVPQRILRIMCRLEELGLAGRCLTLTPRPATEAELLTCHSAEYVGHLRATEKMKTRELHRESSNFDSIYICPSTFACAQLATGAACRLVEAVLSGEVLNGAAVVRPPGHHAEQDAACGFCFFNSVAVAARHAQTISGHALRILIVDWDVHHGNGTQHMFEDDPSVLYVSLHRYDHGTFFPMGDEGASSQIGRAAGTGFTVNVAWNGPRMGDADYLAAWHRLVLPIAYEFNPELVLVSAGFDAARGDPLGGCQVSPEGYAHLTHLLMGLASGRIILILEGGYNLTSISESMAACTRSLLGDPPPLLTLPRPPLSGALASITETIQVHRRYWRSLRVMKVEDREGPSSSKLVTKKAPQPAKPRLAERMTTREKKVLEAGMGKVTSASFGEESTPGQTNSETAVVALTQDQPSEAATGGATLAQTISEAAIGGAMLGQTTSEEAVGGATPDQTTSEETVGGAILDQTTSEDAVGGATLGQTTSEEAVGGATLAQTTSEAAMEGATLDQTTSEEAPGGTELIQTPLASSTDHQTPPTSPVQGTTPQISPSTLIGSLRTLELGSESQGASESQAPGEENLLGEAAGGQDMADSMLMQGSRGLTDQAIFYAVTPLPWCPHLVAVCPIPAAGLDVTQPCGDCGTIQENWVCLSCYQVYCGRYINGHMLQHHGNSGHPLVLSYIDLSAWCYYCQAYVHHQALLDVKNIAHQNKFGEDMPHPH
Kind of assay: Inhibition of human recombinant HDAC6 using ArgHisLysLys(Ac) as substrate by fluorescence based analysis.

The next assay deals with Histone deacetylase 4 (Homo sapiens, UniProt P56524). Kind of assay: Inhibition of human recombinant HDAC4 using ArgHisLysLys(Ac) as substrate by fluorescence based analysis.
Chain of Histone deacetylase 4 (P56524 whole entry): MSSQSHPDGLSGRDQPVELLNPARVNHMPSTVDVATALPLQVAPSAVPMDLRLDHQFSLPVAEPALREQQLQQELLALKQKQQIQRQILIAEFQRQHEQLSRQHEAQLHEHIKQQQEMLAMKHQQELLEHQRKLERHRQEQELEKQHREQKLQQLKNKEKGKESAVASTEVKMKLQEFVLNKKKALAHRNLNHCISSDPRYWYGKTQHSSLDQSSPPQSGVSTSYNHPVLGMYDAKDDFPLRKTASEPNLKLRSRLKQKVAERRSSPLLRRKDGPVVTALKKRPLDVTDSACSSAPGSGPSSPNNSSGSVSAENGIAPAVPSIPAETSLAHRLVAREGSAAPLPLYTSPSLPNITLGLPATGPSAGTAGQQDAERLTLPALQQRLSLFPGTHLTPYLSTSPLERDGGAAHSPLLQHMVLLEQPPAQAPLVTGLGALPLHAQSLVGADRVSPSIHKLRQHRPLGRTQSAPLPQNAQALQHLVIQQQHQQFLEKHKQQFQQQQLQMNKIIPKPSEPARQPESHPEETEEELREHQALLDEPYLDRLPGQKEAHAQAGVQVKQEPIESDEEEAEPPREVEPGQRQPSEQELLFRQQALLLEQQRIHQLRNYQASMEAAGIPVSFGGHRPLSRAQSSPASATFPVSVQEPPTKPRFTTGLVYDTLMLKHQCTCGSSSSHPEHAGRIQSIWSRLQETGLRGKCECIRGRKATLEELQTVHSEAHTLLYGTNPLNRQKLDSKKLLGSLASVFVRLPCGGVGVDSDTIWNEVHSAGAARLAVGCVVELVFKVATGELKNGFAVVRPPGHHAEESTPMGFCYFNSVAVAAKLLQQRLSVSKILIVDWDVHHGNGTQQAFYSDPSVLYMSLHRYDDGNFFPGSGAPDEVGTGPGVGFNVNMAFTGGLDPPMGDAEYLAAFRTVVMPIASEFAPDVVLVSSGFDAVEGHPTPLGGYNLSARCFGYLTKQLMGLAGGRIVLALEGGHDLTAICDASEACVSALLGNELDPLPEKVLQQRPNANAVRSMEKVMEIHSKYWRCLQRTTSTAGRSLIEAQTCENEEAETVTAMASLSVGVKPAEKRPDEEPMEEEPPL
The target in the next assay is Histone deacetylase 9 (Homo sapiens, UniProt Q9UKV0). Kind of assay: Inhibition of human recombinant HDAC9 using ArgHisLysLys(Ac) as substrate by fluorescence based analysis.
Chain of Histone deacetylase 9 (Q9UKV0 whole entry): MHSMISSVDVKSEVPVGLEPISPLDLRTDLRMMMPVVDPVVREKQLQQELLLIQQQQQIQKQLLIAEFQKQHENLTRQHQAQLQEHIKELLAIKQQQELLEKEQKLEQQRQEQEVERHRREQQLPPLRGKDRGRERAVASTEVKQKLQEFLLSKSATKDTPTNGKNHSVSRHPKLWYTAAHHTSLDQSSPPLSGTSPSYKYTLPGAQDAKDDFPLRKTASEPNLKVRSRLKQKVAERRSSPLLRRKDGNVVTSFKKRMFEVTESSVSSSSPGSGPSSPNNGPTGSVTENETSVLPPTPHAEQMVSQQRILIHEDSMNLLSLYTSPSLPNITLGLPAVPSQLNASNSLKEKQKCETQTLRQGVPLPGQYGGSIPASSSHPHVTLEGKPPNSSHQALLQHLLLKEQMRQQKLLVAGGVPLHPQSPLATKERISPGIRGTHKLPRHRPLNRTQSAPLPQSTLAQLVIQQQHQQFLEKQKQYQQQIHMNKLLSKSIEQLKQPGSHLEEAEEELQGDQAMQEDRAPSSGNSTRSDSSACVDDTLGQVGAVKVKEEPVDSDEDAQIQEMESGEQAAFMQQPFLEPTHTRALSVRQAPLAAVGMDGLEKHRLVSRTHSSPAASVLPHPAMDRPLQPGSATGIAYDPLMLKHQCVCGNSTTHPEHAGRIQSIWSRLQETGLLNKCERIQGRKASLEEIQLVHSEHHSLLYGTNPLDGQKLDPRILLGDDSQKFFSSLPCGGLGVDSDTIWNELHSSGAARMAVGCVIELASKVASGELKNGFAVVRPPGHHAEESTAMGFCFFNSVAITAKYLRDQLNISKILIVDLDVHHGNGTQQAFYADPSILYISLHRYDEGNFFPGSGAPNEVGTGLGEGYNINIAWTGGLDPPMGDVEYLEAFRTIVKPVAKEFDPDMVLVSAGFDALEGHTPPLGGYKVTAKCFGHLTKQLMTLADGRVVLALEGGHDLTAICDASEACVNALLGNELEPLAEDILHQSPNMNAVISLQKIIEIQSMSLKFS
The target in assay [2] is T3, Polyamine deacetylase HDAC10 (Homo sapiens, UniProt Q969S8).
T3 sequence (Q969S8 whole entry): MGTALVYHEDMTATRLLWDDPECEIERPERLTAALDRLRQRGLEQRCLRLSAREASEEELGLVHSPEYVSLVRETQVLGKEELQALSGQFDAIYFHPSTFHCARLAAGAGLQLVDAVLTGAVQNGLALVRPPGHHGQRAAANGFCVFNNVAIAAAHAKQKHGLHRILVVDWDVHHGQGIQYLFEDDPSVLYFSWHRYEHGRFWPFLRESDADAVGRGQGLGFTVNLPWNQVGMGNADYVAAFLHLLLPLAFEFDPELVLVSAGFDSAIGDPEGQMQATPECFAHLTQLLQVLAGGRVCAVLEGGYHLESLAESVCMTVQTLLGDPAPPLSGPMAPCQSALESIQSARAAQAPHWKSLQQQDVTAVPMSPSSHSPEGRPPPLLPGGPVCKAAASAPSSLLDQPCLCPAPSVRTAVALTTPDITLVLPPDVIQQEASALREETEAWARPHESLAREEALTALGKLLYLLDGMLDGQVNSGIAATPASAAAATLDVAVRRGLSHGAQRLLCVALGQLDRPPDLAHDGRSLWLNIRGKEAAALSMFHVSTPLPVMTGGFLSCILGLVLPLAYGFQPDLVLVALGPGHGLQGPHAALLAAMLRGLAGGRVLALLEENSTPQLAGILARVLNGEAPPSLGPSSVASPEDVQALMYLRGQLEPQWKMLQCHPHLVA
Kind of assay: Inhibition of human recombinant HDAC10 using ArgHisLysLys(Ac) as substrate by fluorescence based analysis.

Another assay has as its target Histone deacetylase 2 (Homo sapiens, UniProt Q92769). Kind of assay: Inhibition of human recombinant HDAC2 using ArgHisLysLys(Ac) as substrate by fluorescence based analysis.
A further assay concerns the target Histone deacetylase 5 (Homo sapiens, UniProt Q9UQL6). Kind of assay: Inhibition of human recombinant HDAC5 using ArgHisLysLys(Ac) as substrate by fluorescence based analysis.
A further assay addresses Histone deacetylase 3 (Homo sapiens, UniProt O15379). Description: Inhibition of human recombinant HDAC3 using ArgHisLysLys(Ac) as substrate by fluorescence based analysis.

Chain of Histone deacetylase 3 (O15379 whole entry): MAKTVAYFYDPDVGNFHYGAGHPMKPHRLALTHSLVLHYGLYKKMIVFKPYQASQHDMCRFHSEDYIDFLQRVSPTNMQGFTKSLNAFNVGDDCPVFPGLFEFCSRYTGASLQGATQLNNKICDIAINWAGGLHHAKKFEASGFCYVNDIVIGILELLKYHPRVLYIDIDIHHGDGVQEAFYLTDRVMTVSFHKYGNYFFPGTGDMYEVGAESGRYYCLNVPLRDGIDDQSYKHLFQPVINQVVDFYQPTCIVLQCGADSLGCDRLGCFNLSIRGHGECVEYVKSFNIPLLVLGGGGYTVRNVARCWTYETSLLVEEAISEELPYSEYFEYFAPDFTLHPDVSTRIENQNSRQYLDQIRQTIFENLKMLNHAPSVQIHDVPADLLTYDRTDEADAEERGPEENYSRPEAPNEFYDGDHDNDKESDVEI
Chain of Histone deacetylase 1 (Q13547 whole entry): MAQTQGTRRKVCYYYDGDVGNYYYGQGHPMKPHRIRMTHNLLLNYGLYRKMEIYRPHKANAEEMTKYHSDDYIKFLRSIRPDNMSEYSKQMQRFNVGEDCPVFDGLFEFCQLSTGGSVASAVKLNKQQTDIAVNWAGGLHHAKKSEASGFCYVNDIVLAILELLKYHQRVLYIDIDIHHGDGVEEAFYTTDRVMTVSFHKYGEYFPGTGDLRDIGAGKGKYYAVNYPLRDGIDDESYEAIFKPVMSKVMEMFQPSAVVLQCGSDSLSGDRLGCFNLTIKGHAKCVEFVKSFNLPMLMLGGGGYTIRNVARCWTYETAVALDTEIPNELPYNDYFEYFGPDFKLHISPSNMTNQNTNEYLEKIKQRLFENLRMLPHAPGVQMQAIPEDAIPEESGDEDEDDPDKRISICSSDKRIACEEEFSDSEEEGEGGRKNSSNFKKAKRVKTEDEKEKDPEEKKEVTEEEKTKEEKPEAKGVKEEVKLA
Chain of Histone deacetylase 5 (Q9UQL6 whole entry): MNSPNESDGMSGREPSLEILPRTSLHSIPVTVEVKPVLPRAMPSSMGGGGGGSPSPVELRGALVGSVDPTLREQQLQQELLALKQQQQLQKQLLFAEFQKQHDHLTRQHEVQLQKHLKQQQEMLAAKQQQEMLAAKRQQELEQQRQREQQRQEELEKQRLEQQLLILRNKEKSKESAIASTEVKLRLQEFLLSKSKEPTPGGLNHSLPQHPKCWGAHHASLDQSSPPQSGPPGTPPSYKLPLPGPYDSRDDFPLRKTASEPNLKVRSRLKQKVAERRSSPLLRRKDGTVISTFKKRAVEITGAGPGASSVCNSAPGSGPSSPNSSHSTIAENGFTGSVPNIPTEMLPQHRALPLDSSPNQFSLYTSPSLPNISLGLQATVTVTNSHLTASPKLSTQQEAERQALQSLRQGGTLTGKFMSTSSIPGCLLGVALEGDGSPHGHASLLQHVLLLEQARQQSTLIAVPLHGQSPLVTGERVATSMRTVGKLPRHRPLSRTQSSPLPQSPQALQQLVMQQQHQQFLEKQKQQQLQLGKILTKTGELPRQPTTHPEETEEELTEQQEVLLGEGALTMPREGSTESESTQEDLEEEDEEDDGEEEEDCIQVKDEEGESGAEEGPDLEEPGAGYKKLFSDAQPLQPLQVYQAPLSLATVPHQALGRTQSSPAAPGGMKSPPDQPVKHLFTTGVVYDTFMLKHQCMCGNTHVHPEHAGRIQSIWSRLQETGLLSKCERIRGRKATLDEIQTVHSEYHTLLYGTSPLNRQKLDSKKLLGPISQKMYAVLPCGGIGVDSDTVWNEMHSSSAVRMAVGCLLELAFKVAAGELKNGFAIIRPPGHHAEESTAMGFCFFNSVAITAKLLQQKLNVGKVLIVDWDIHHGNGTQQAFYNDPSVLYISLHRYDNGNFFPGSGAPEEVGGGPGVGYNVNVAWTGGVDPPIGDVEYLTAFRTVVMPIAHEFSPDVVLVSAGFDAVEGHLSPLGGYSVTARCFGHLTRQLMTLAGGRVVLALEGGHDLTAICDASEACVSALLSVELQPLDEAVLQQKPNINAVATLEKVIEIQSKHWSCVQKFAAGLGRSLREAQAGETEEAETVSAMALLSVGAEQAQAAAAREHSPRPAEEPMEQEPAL
Chain of Histone deacetylase 2 (Q92769 whole entry): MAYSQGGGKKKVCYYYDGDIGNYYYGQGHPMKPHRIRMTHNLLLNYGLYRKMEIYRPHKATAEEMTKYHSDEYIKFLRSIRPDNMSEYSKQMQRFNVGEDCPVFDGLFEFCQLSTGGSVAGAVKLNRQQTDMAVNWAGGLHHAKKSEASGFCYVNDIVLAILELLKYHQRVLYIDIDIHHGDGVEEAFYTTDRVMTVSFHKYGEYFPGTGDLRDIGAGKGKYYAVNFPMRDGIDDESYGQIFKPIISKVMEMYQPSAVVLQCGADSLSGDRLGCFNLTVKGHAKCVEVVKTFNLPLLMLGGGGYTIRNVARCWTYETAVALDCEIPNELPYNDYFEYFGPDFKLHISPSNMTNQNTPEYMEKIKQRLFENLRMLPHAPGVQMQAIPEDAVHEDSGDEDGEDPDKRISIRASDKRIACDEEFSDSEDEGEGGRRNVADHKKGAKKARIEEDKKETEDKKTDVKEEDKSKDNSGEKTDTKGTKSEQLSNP

In general, pIC50 refers to the IC50 on a negative log10 scale, so that one unit is a factor of ten. Turning to `O=C(CCCCCC1CNC1=O)Nc1ccccc1` (stereo unspecified), the pIC50 is less than 3.00 on Histone deacetylase 11; less than 3.00 at Histone deacetylase 1; 4.13 in assay [1]; less than 3.00 at Histone deacetylase 4; less than 3.00 on Histone deacetylase 9; less than 3.00 in assay [2]. The pIC50 at Histone deacetylase 2, on Histone deacetylase 5 and on Histone deacetylase 3 was less than 3.00 in each case.

On to `O=C(CCCCC[C@@H]1CN(O)C1=O)Nc1ccccc1`, for which the pIC50 is less than 3.00 at Histone deacetylase 11; less than 3.00 on Histone deacetylase 1; 3.88 in assay [1]; less than 3.00 at Histone deacetylase 4; less than 3.00 at Histone deacetylase 9; less than 3.00 in [2]. Moreover, the pIC50 at Histone deacetylase 2, at Histone deacetylase 5 and at Histone deacetylase 3 was less than 3.00 throughout.

On to `Nc1ccccc1N1CC(CCCCCC(=O)Nc2ccccc2)C1=O` (stereo unspecified), for which the pIC50 (on Histone deacetylase 11; at Histone deacetylase 1; in [1]; at Histone deacetylase 4; at Histone deacetylase 9; in assay [2]) was less than 3.00 each time. The pIC50 at Histone deacetylase 2, at Histone deacetylase 5 and on Histone deacetylase 3 was less than 3.00 in each case.

Turning to `O=C(CCCCC[C@H]1CN(O)C1=O)Nc1ccccc1`, the pIC50 is less than 3.00 at Histone deacetylase 11; less than 3.00 on Histone deacetylase 1; 3.76 in assay [1]; less than 3.00 at Histone deacetylase 4; less than 3.00 at Histone deacetylase 9; less than 3.00 in assay [2]. Besides, the pIC50 on Histone deacetylase 2, at Histone deacetylase 5 and at Histone deacetylase 3 was less than 3.00 in each case.
